Reference: US8088806B2 (Achillion Pharmaceuticals, Inc., priority 2005, dated 2012)

test system: HCV replicon; experiment: Replicon based assay of HCV replication inhibition (NPT ELISA); assay type: cell-based, Hepatitis C virus; conditions: Hepatitis C virus, replicon based assay of HCV replication inhibition; Table II; read-out: Activity
Outline: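 Huh-7 cells carrying a bicistronic HCV replicon (neo, EMCV-IRES-driven NS3–NS5B) treated overnight after seeding with usually 6 concentrations, 10 to 0.03 micromolar, for three days at 37° C without G418. Replication read as NPT level by captured ELISA; matched-DMSO wells and interferon alpha as controls.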

Compared with `COc1ccc(OC)c(Nc2ncc(-c3cccs3)s2)c1` [compound 440, N-(2,5-dimethoxyphenyl)-5-(thiophen-2-yl)thiazol-2-amine], `CCCCCOc1ccc(Nc2nc(-c3cccnc3)c(C(=O)OC)s2)cc1C(F)(F)F` [compound 443, methyl 2-(3-(trifluoromethyl)-4-(pentyloxy)phenylamino)-4-(pyridin-3-yl)thiazol-5-carboxylate] is lower in EC50: 1000 to 10000 nM for the first, < 1000 nM for the second. The second is the more potent here.

`CCCCCOc1ccc(Nc2nc(-c3cccnc3C)cs2)cc1C(F)(F)F` [compound 441, N-(3-(trifluoromethyl)-4-(pentyloxy)phenyl)-4-(2-methylpyridin-3-yl)thiazol-2-amine] and `CCCCCOc1ccc(Nc2nc(-c3ccc(Br)nc3)cs2)cc1C(F)(F)F` [compound 459, 4-(6-bromopyridin-3-yl)-N-(3-(trifluoromethyl)-4-(pentyloxy)phenyl)thiazol-2-amine] cannot be ordered by EC50: < 1000 nM for the first, < 1000 nM for the second.

`CCCCCCCCOc1ccc(Nc2nc(-c3cccnc3C)cs2)cc1` [compound 442, 4-(2-methylpyridin-3-yl)-N-(4-(octyloxy)phenyl)thiazol-2-amine] and `CCCCCCCCOc1ccc(Nc2nc(-c3ccc(NC)nc3)cs2)cc1` [compound 463, 5-(2-(4-(octyloxy)phenylamino)thia-zol-4-yl)-N-meethylpyridin-2-amine] cannot be ordered by EC50: < 1000 nM for the first, < 1000 nM for the second.

`CCCCCCCCOc1ccc(Nc2nc(-c3cccnc3)c(C(=O)OC)s2)cc1` [compound 444, meethyl 2-(4-(octyloxy)pheenylamino)-4-(pyridin-3-yl)thiazol-5-carboxylate] and `CCCCCCCCOc1ccc(Nc2nc(-c3ccc(C(=O)N(C)C)nc3)cs2)cc1` [compound 456, 5-(2-(4-(octyloxy)phenylamino)thia-zol-4-yl)-N,N-dimethylpyridine-2-carboxamide] fall in the same range of EC50: 1000 to 10000 nM for the first, 1000 to 10000 nM for the second.

`CCCCCOc1ccc(Nc2nc(-c3c(C)cc(C)nc3C)cs2)cc1C(F)(F)F` [compound 445, N-(3-(trifluoromethyl)-4-(pentyloxy)phenyl)-4-(2,4,6-trimethylpyridin-3-yl)thiazol-2-amine] and `CCCCCCCOc1ccc(Nc2nc(-c3c(C)cc(C)nc3C)cs2)cc1` [compound 446, N-(4-(heptyloxy)phenyl)-4-(2,4,6-trimethylpyridin-3-yl)thiazol-2-amine] cannot be ordered by EC50: > 10000 nM for the first, > 10000 nM for the second.

First: CCCCCCCCOc1ccc(Nc2nc(-c3c(C)cc(C)nc3C)cs2)cc1 [compound 447, 4-(2,4,6-trimethylpyridin-3-yl)-N-(4-(octyloxy)phenyl)thiazol-2-amine]
Second: CCCCCCCCOc1ccc(Nc2nc(O)cs2)cc1 [compound 464, 2-(4-(octyloxy)phenylamino)thia-zol-4-ol]
The EC50 of the first is higher: > 10000 nM for the first, 1000 to 10000 nM for the second. The second is the more potent here.

`CCCCCCCOc1ccc(Nc2nc(-c3ccc(O)c(C(N)=O)c3)cs2)cc1` [compound 448, 5-(2-(4-- (heptyloxy)phenylamino)thia-zol-4-yl)-2-hydroxybenzamide] and `CCCCCCCCOc1ccc(Nc2nc(-c3ccc(O)c(C(N)=O)c3)cs2)cc1` [compound 449, 5-(2-(4-(octyloxy)phenylamino)thia-zol-4-yl)-2-hydroxybenzamide] cannot be ordered by EC50: < 1000 nM for the first, < 1000 nM for the second.

`CCCCCOc1ccc(Nc2nc(-c3ccc(N4CCCC4)nc3)cs2)cc1C(F)(F)F` [compound 450, N-(3-(trifluoromethyl)-4-(pentyloxy)phenyl)-4-(6-(pyrrolidin-1-yl)pyridin-3-yl)thiazol-2-amine] and `CCCCCOc1ccc(Nc2nc(-c3ccc(Cl)nc3)cs2)cc1C(F)(F)F` [compound 460, 4-(6-chloropyridin-3-yl)-N-(3-(trifluoromethyl)-4-(pentyloxy)phenyl)thiazol-2-amine] cannot be ordered by EC50: < 1000 nM for the first, < 1000 nM for the second.

`CCCCCCCc1ccc(C(=O)Nc2nc(-c3ccc(Cl)cc3)cs2)cc1` [compound 451, N-(4-(4-chlorophenyl)thiazol-2-yl)-4-heptylbenzamide] and `CCCCCCCc1ccc(Nc2nc(-c3cccnc3)cs2)cc1` [compound 483, N-(4-heptylphenyl)-4-(pyridin-3-yl)thiazol-2-amine] cannot be ordered by EC50: < 1000 nM for the first, < 1000 nM for the second.

`CCCCCCOc1ccc(Nc2nc(-c3ccc(F)cc3)cs2)cc1` [compound 452, 4-(4-fluorophenyl)-N-(4-(hexyloxy)phenyl)thiazol-2-amine] and `CCCCCCCCOc1ccc(Nc2nc(-c3ccc(O)cc3)cs2)cc1` [compound 458, 4-(2-(4-(octyloxy)phenylamino)thia-zol-4-yl)phenol] cannot be ordered by EC50: < 1000 nM for the first, < 1000 nM for the second.

`Cc1ccc(-c2csc(Nc3ccc(OC4CCCC4)c(C(F)(F)F)c3)n2)cn1` [compound 453, N-(4-(cyclopentyloxy)-3-(trifluoromethyl)phenyl)-4-(6-methylpyridin-3-yl)thiazol-2-amine] and `CC/C=C\CCCCOc1ccc(Nc2nc(-c3ccc(C)nc3)cs2)cc1C(F)(F)F` [compound 481, N-(4-((Z)-oct-5-enyloxy)-3-(trifluoromethyl)phenyl)-4-(6-methylpyridin-3-yl)thiazol-2-amine] cannot be ordered by EC50: < 1000 nM for the first, < 1000 nM for the second.

First: CCCCCN(C)c1ccc(Nc2nc(-c3ccc(C)nc3)cs2)cc1C(F)(F)F [compound 454, 2-(trifluoromethyl)-N^1-methyl-N^4-(4-(6-methylpyridin-3-yl)thiazol-2-yl)-N^1-pentylbenzene-1,4-diamine]
Second: CC(=O)OCCCCCCN(C)c1ccc(Nc2nc(-c3ccc(C)nc3)cs2)cc1C(F)(F)F [compound 466]
The EC50 of the first is lower: < 1000 nM for the first, 1000 to 10000 nM for the second.

First: CCCCCCOc1ccc(Nc2nc(-c3ccc(C)nc3)cs2)cc1 [compound 455, N-(4-(hexyloxy)phenyl)-4-(6-methylpyridin-3-yl)thiazol-2-amine]
Second: CCCCCCCOc1ccc(Nc2nc(-c3ccc(C(=O)N(C)C)nc3)cs2)cc1 [compound 457, 5-(2-(4-(heptyloxy)phenylamino)thia-zol-4-yl)-N,N-dimethylpyridine-2-carboxamide]
The EC50 of the first is lower: < 1000 nM for the first, 1000 to 10000 nM for the second.

`CCCCCCCCOc1ccc(Nc2nc(-c3ccc(OCC(=O)OCC)cc3)cs2)cc1` [compound 461, ethyl 2-(4-(2-(4-(octyloxy)phenylamino)thia-zol-4-yl)phenoxy)acetate] and `CCCCCCCCOc1ccc(Nc2nc(-c3ccc(OCC(=O)O)cc3)cs2)cc1` [compound 462, 2-(4-(2-(4-(octyloxy)phenylamino)thia-zol-4-yl)phenoxy)acetic acid] cannot be ordered by EC50: < 1000 nM for the first, < 1000 nM for the second.

Compared with `CC(=O)OCCCCCCN(C)c1ccc(Nc2nc(-c3cccnc3)cs2)cc1C(F)(F)F` [compound 465], `CCCCCCCCN(C)c1ccc(Nc2nc(-c3cccnc3)cs2)cc1C(F)(F)F` [compound 477, 2-(trifluoromethyl)-N^1-methyl-N^1-octyl-N^4-(4-(pyridin-3-yl)thiazol-2-yl)benzene-1,4-diamine] is lower in EC50: 1000 to 10000 nM for the first, < 1000 nM for the second. The second is the more potent here.

First: CC(=O)OCCCCCCN(C)c1ccc(Nc2nc(-c3ccc(F)cc3)cs2)cc1C(F)(F)F [compound 467]
Second: CN(CCCCCCO)c1ccc(Nc2nc(-c3ccc(F)cc3)cs2)cc1C(F)(F)F [compound 470, 6-(N-(4-(4-(4-fluorophenyl)thiazol-2-ylamino)-2-(trifluoromethyl)phenyl)-N-methylamino)hexan-1-ol]
The EC50 of the first is higher: > 10000 nM for the first, 1000 to 10000 nM for the second.

First: CCCCCCCCOc1ccc(Nc2nc(-c3ccc(C(=O)N(C)C)nc3)cs2)cn1 [compound 468, 5-(2-(6-(octyloxy)pyridin-3-ylamino)thiazol-4-yl)-N,N-dimethylpyridine-2-carboxamide]
Second: CCCCCCCCOc1ccc(Nc2nc(-c3ccc(C)nc3)cs2)cn1 [compound 473, N-(4-(6-methylpyridin-3-yl)thiazol-2-yl)-6-(octyloxy)pyridin-3-amine]
The EC50 of the first is higher: 1000 to 10000 nM for the first, < 1000 nM for the second.

Compared with `CCCCCCCCOc1ccc(Nc2nc(-c3cccnc3)cs2)cn1` [compound 469, 6-(octyloxy)-N-0(4-(pyridin-3-yl)thiazol-2-yl)pyridin-3-amine], `CCCCCCCCOc1ccc(Nc2nc(-c3ccc(F)cc3)cs2)cn1` [compound 475, N-(4-(4-fluorophenyl)thiazol-2-yl)-6-(octyloxy)pyridin-3-amine] is lower in EC50: 1000 to 10000 nM for the first, < 1000 nM for the second.

`CCCCCCCCOc1ccc(Nc2nc(-c3ccc(F)c(F)c3)cs2)cn1` [compound 474, N-(4-(3,4-difluorophenyl)thiazol-2-yl)-6-(octyloxy)pyridin-3-amine] and `CCCCCCCCOc1ccc(Nc2nc(-c3cccnc3)cs2)cc1C(F)(F)F` [compound 476, N-(3-(trifluoromeethyl)-4-(octyloxy)phenyl)-4-(pyridin-3-yl)thiazol-2-amine] cannot be ordered by EC50: < 1000 nM for the first, < 1000 nM for the second.

First: O=C(Nc1ccc(OCc2ccccc2)cc1)Nc1nc(-c2ccc(Cl)cc2)cs1 [compound 478, 1-(4-(benzyloxy)phenyl)-3-(4-(4-chlorophenyl)thiazol-2-yl)urea]
Second: CC/C=C\CCCCOc1ccc(Nc2nc(-c3ccc(F)cc3)cs2)cc1C(F)(F)F [compound 482, N-(4-((Z)-oct-5-enyloxy)-3-(trifluoromethyl)phenyl)-4-(4-fluorophenyl)thiazol-2-amine]
The EC50 of the first is higher: 1000 to 10000 nM for the first, < 1000 nM for the second. The second is the more potent here.

`CCCCCCCCOc1ccc(Nc2nc(Cl)cs2)cc1` [compound 479, 4-chloro-N-(4-(octyloxy)phenyl)thiazol-2-amine] and `CCCCCOc1ccc(Nc2nc3c(s2)Cc2ccccc2-3)cc1C(F)(F)F` [compound 484, N-(3-(trifluoromethyl)-4-(pentyloxy)phenyl)-8H-indeno[1,2-d]thiazol-2-amine] cannot be ordered by EC50: < 1000 nM for the first, < 1000 nM for the second.

With `CC/C=C\CCCCOc1ccc(Nc2nc(-c3cccnc3)cs2)cc1C(F)(F)F` [compound 480, N-(4-((Z)-oct-5-enyloxy)-3-(trifluoromethyl)phenyl)-4-(pyridin-3-yl)thiazol-2-amine] the EC50 was < 1000 nM.

same assay, conditions: replicon based assay of HCV replication inhibition; Table II; read-out: Activity

`CCCCCCCCOc1ccc(Nc2nc(-c3ccc(C(=O)N(C)C)nc3)cs2)cn1` [compound 471, 5-(2-(6-(octyloxy)pyridin-3-ylamino)thiazol-4-yl)-N,N-dimethylpyridine-2-carboxamide] and `CCCCCCCCOc1ccc(Nc2nc(-c3cccnc3)cs2)cn1` [compound 472, 6-(octyloxy)-N-(4-(pyridin-3-yl)thiazol-2-yl)pyridin-3-amine] cannot be ordered by EC50: < 1000 nM for the first, < 1000 nM for the second.
